This is an account of results in paper PMC7902086 (Toxicology letters, 2019).

Where “and” joins values, the source holds several entries; their conditions need not be identical. Equal entries are not always repeated.

One data set concerns the target CYP2C19 (Homo sapiens, UniProt P33261). The data set can be described thus: CYP450 inhibition assay, S-mephenytoin 4′-hydroxylase in human liver microsomes. In kind it is in vitro ADME. Conditions: read-out: IC50, CYP2C19 S-Mephenytoin 4′-hydroxylase; human liver microsomes 0.1 mg/mL; mean of triplicate. (In general: Liver microsomes are vesicles of endoplasmic reticulum, rich in cytochrome P450 enzymes.)

Data set [1] has as its system CYP3A4/5. Description: CYP450 inhibition assay, midazolam 1′-hydroxylase in human liver microsomes. Type of data set: in vitro ADME. Conditions: read-out: IC50, CYP3A4/5 Midazolam 1′-hydroxylase; human liver microsomes 0.1 mg/mL; mean of triplicate.
Data set [2] deals with CYP3A4/5. Description: CYP450 inhibition assay, testosterone 6β-hydroxylase in human liver microsomes. Type of data set: in vitro ADME. Conditions: read-out: IC50, CYP3A4/5 Testosterone 6β-hydroxylase; human liver microsomes 0.1 mg/mL; mean of triplicate.
A further data set deals with μ-opioid receptors. As to conditions: ref Boyer et al., 2008; Kruegel et al., 2016; cited from earlier work.
Another data set concerns the target CYP2D6 (Homo sapiens, UniProt P10635). As to conditions: known CYP2D6 substrates; ref Obach et al., 2006; cited from earlier work.
The conditions of data set [3]: deceased kratom users in the United States, autopsies; ref Gershman et al., 2019; cited from earlier work.
For another data set, the system named is CYP3A4. Conditions: in humans; ref Kamble et al., 2019; cited from earlier work.

Chain of CYP2D6 (P10635 whole entry): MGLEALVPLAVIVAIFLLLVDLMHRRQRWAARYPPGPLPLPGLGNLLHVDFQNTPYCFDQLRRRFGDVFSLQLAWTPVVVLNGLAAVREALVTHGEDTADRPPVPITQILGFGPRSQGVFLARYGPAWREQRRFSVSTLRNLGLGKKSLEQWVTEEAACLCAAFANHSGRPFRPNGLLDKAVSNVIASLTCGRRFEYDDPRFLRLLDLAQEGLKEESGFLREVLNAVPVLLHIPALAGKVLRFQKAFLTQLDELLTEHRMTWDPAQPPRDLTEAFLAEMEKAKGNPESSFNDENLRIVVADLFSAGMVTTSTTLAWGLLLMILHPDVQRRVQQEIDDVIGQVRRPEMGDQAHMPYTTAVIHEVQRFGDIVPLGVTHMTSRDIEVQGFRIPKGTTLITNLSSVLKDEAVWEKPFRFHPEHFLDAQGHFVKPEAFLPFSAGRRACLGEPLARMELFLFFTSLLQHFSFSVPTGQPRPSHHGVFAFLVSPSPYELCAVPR
Chain of CYP2C19 (P33261 whole entry): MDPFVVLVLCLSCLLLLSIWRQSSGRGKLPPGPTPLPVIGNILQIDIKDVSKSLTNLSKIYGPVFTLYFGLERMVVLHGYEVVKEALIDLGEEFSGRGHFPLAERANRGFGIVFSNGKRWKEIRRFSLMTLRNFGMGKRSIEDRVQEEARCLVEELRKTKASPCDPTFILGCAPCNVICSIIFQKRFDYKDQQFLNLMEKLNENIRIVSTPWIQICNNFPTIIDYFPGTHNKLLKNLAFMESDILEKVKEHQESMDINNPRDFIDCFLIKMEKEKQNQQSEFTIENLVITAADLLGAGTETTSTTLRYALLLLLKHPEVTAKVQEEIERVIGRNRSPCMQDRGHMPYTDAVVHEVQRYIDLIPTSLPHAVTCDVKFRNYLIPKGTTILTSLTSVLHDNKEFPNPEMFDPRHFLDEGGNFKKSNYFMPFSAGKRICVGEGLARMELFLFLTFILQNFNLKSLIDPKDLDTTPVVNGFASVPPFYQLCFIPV

Take `CC[C@@H]1CN2CC[C@@]3(O)C(=Nc4cccc(OC)c43)[C@@H]2C[C@@H]1/C(=C\OC)C(=O)OC` [7HMG, 7-hydroxymitragynine]: the IC50 on CYP2C19 is 27.7 µM; with CYP3A4/5 [1], more than 45 µM; in the data set on CYP3A4/5 [2], more than 45 µM. For the same molecule, the “activity at μ-opioid receptors” value with μ-opioid receptors is given as “partial agonists”.
For the molecule `CC[C@@H]1CN2CCc3c([nH]c4cccc(OC)c34)[C@H]2C[C@@H]1/C(=C\OC)C(=O)OC` [SPC, speciocilliatine], the IC50 was 8 µM on CYP2C19, 26.4 µM in the data set on CYP3A4/5 [1] and more than 45 µM with CYP3A4/5 [2].
`CC[C@H]1CN2CCc3c([nH]c4cccc(OC)c34)[C@@H]2C[C@@H]1/C(=C\OC)C(=O)OC` [SPG, speciogynine]: the results for the IC50 on CYP2C19, in the data set on CYP3A4/5 [1] and in the data set with CYP3A4/5 [2] were 19.5 µM, 13.5 µM and more than 45 µM, respectively.
For `CNCCCN1c2ccccc2CCc2ccccc21` [desipramine], the “fm, CYP2D6” value on CYP2D6 is reported as 0.9.
With mitragynine [MTG], in data set [3], the serum concentration levels was 16 to 4800 ng/mL and 0.041–12.05 μM. Moreover, the “activity at μ-opioid receptors” value with μ-opioid receptors is “partial agonists”. The “enzyme predominantly responsible for metabolism” value with CYP3A4 is recorded as “predominantly metabolized by CYP3A4”.
In the case of `C=C[C@H]1CN2CCc3c([nH]c4cccc(OC)c34)[C@@H]2C[C@@H]1/C(=C\OC)C(=O)OC` [PAY, paynantheine], the IC50 on CYP2C19 is 38.4 µM; in the data set on CYP3A4/5 [1], 7.9 µM; in the data set with CYP3A4/5 [2] it was more than 45 µM.
Take `COc1ccc2c(c1)[C@]13CCCC[C@@H]1[C@H](C2)N(C)CC3` [dextromethorphan]: the “fm, CYP2D6” value on CYP2D6 is recorded as 1.
As to `COCCc1ccc(OCC(O)CNC(C)C)cc1` (stereo not shown) [metoprolol], on CYP2D6, the “fm, CYP2D6” value was 0.8.
